Source: ChEMBL document CHEMBL1201862, “PubChem BioAssay data set” (2004)
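Cells were grown in 96-well plates and exposed to each compound for 48 hours at five concentrations; endpoints were interpolated linearly between bracketing concentrations, or set to the highest concentration if not reached. Here, GI50 denotes the concentration required for 50% inhibition of growth.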 Active and inactive are the calls of the source. Cut-off read from the data, not from the text of the source: active = GI50 up to about 1.1 µM and inactive = higher.

What was measured:
Experiment in all cases: inhibition of tumour cell growth, NCI panel, 48 h
DMS-273 = tested on: DMS-273
SNB-78 = tested on: SNB-78
DMS-114 = tested on: DMS-114
XF498 = tested on: XF498
HOP-18 = tested on: HOP-18
KM-20L2 = tested on: KM-20L2
LXFL 529 = tested on: LXFL 529
M19-MEL = tested on: M19-MEL
RXF 631 = tested on: RXF 631

Structure (SMILES)	GI50 (DMS-273)	GI50 (SNB-78)	GI50 (DMS-114)	GI50 (XF498)	GI50 (HOP-18)	GI50 (KM-20L2)	GI50 (LXFL 529)	GI50 (M19-MEL)	GI50 (RXF 631)
N/C(=C\c1ccc(/C=C(\NC(=O)c2ccccc2)c2nc3c([nH]2)C(=O)c2ccccc2C3=O)cc1)c1nc2c([nH]1)C(=O)c1ccccc1C2=O	18.5 µM (inactive)	20.6 µM (inactive)	7.55 µM (inactive)	11.6 µM (inactive)	14.3 µM (inactive)	16.5 µM (inactive)	10.7 µM (inactive)	–	–
O=C1C(=Cc2cccs2)C(=O)N(CCc2ccccc2)S(=O)(=O)N1CCc1ccccc1	> 50 µM (inactive)	> 50 µM (inactive)	10.4 µM (inactive)	> 50 µM (inactive)	> 50 µM (inactive)	> 50 µM (inactive)	> 50 µM (inactive)	> 50 µM (inactive)	–
COC1OC(C)C2OC(C)(C)OC2C1OC(C)=O (stereo not drawn)	> 100 µM (inactive)	> 100 µM (inactive)	–	> 100 µM (inactive)	> 100 µM (inactive)	> 100 µM (inactive)	> 100 µM (inactive)	> 100 µM (inactive)	> 100 µM (inactive)
Cc1cccc(/N=C/c2ccc(N(CCC#N)S(=O)(=O)c3ccccc3)cc2C)c1	> 100 µM (inactive)	–	63.7 µM (inactive)	> 100 µM (inactive)	–	> 100 µM (inactive)	29.6 µM (inactive)	> 100 µM (inactive)	> 100 µM (inactive)
C[C@]12CC[C@H](OCCC#N)CC1=CC[C@@H]1C2CC[C@]2(C)/C(=N/OCCC#N)CCC12 (stereo partly drawn)	42.2 µM (inactive)	22.8 µM (inactive)	5.12 µM (inactive)	3.4 µM (inactive)	> 100 µM (inactive)	> 100 µM (inactive)	> 74.6 µM (inactive)	> 100 µM (inactive)	–
COc1ccc(/N=N/c2c(-c3ccccc3)nn(C(=O)CC(=O)Nc3cccc(Cl)c3)c2-c2ccccc2)cc1	> 100 µM (inactive)	–	45.8 µM (inactive)	> 100 µM (inactive)	66.8 µM (inactive)	66.1 µM (inactive)	> 100 µM (inactive)	> 100 µM (inactive)	–
Cc1ccc(S(=O)(=O)C(C#N)c2nc3ccccc3nc2-n2cccn2)cc1 (stereo not drawn)	> 100 µM (inactive)	> 100 µM (inactive)	> 100 µM (inactive)	> 100 µM (inactive)	86.9 µM (inactive)	–	> 100 µM (inactive)	> 100 µM (inactive)	–
CC(=O)OC[C@@H]1[C@H]2CC(=O)O[C@H]2C[C@H]1OC(C)=O	> 100 µM (inactive)	> 100 µM (inactive)	> 100 µM (inactive)	–	> 100 µM (inactive)	> 100 µM (inactive)	> 100 µM (inactive)	> 100 µM (inactive)	–
C=CCC1(CN(C)C)CC/C(=C\c2ccc(Cl)cc2)C1=O (stereo not drawn)	24.7 µM (inactive)	27.4 µM (inactive)	27.4 µM (inactive)	77.6 µM (inactive)	> 54.1 µM (inactive)	22.8 µM (inactive)	27.5 µM (inactive)	32.3 µM (inactive)	–
COCCOCC(=O)N(CCn1ccc(NC(c2ccccc2)(c2ccccc2)c2ccccc2)nc1=O)CCn1cnc2nc(N)[nH]c(=O)c21	> 100 µM (inactive)	> 100 µM (inactive)	> 100 µM (inactive)	–	> 100 µM (inactive)	> 100 µM (inactive)	> 100 µM (inactive)	–	> 100 µM (inactive)
CN(C)CCNC(=O)c1cccc2cc3ccc4ccccc4c3nc12	0.0224 µM (active)	0.182 µM (active)	–	0.056 µM (active)	0.205 µM (active)	0.136 µM (active)	0.128 µM (active)	–	–
CCCCCCCCCCOC(=O)NCCC	20.6 µM (inactive)	–	–	18.2 µM (inactive)	26.7 µM (inactive)	22.8 µM (inactive)	38 µM (inactive)	34.5 µM (inactive)	27.6 µM (inactive)
O=C(CC1(O)C(=O)Nc2c(Cl)cc(Cl)cc21)c1ccc(F)cc1 (stereo not drawn)	38.2 µM (inactive)	83.9 µM (inactive)	23.9 µM (inactive)	14.4 µM (inactive)	72.1 µM (inactive)	53 µM (inactive)	31.9 µM (inactive)	19 µM (inactive)	32.5 µM (inactive)
Cc1cc(C)nc(NS(=O)(=O)c2ccc(NC(=O)c3cccc4cc5ccccc5nc34)cc2)n1	21.9 µM (inactive)	25.2 µM (inactive)	–	25.3 µM (inactive)	–	37.2 µM (inactive)	36.1 µM (inactive)	28.2 µM (inactive)	28.5 µM (inactive)
COC(=O)CCSC(=O)Nc1ccccc1Cl	> 100 µM (inactive)	> 100 µM (inactive)	> 100 µM (inactive)	–	–	> 100 µM (inactive)	> 100 µM (inactive)	–	–
Cc1ccc(/C=N/NS(=O)(=O)c2ccccc2)cc1	> 100 µM (inactive)	> 100 µM (inactive)	> 100 µM (inactive)	> 100 µM (inactive)	> 100 µM (inactive)	> 100 µM (inactive)	> 100 µM (inactive)	–	> 100 µM (inactive)
CC1(C)C(O)OC(O)C1(C)C (stereo not drawn)	70.5 µM (inactive)	> 100 µM (inactive)	> 100 µM (inactive)	47 µM (inactive)	49.1 µM (inactive)	> 100 µM (inactive)	74 µM (inactive)	> 100 µM (inactive)	61 µM (inactive)
COC1(C)C(=O)N2C1N(C(=O)OCc1ccccc1)CC2(C)C (stereo not drawn)	> 100 µM (inactive)	–	> 100 µM (inactive)	> 100 µM (inactive)	–	> 100 µM (inactive)	> 100 µM (inactive)	> 100 µM (inactive)	–
O=C(N/C(=C\c1cccc([N+](=O)[O-])c1)c1nc2c3c(ccc2[nH]1)C(=O)c1ccccc1C3=O)c1ccccc1	–	> 100 µM (inactive)	26.4 µM (inactive)	57.9 µM (inactive)	> 100 µM (inactive)	30.2 µM (inactive)	16 µM (inactive)	–	–
COc1ccc(C(c2ccc(C(C)C)cc(OC)c2=O)c2ccc(C(C)C)cc(OC)c2=O)cc1	14.8 µM (inactive)	13.2 µM (inactive)	12.3 µM (inactive)	20.4 µM (inactive)	25.4 µM (inactive)	14.1 µM (inactive)	14.5 µM (inactive)	14.1 µM (inactive)	15 µM (inactive)
CC1(C)C(O)C[C@@H](O)[C@@]2(C)C1CC[C@]1(C)C2C[C@@H](O)[C@@H]2C([C@@]3(C)CC[C@@H](C(C)(C)O)O3)CCC21C (stereo partly drawn)	14.6 µM (inactive)	21.3 µM (inactive)	15.5 µM (inactive)	18.2 µM (inactive)	16.8 µM (inactive)	17.5 µM (inactive)	10.2 µM (inactive)	–	–
Nc1ccn([C@@H]2C=C(CO)[C@@H](O)[C@H]2O)c(=O)n1	0.256 µM (active)	3.28 µM (inactive)	0.417 µM (active)	6.22 µM (inactive)	8.09 µM (inactive)	0.0912 µM (active)	–	0.308 µM (active)	–
COc1ccc(-c2oc3cc(O)c(OC)c(O)c3c(=O)c2O)cc1 [BETULETOL]	9.68 µM (inactive)	81.3 µM (inactive)	–	24.9 µM (inactive)	67.3 µM (inactive)	39.7 µM (inactive)	20.1 µM (inactive)	38.8 µM (inactive)	21.5 µM (inactive)
